Reference: patent publication US10815274B2, “Immunogenic WT-1 peptides and methods of use thereof” (Memorial Sloan Kettering Cancer Center, priority 2012, dated 2020)
Where a SMILES comes first, the peptide text is derived from it.

Tests used:
[1] = test system: WT1+ allo APC with restricting HLA allele loaded with WT1 peptide; assay: Cr51 release assay, cytotoxic CTL response vs peptide loaded allogeneic APC sharing restricting HLA allele (HLA restriction); settings: 50:1 E:T
[2] = test system: WT1- allo APC with restricting HLA allele; assay: Cr51 release assay, cytotoxic CTL response vs unloaded allogeneic APC sharing restricting HLA allele; type: cell-based, human; settings: 50:1 E:T
[3] = test system: WT1 peptide loaded autologous APC; assay: Cr51 release assay, cytotoxic CTL response vs peptide loaded autologous APC; type: cell-based, human; settings: 50:1 E:T
WT1- autologous APC = assay: Cr51 release assay, cytotoxic CTL response vs unmodified autologous APC; type: cell-based, human; settings: 50:1 E:T
WT1- leukemia = assay: Cr51 release assay, cytotoxic CTL response vs WT1- leukemia; type: cell-based, human; settings: HLA allele A0201; 50:1 E:T
Source text: (§1) Twenty-four primary leukemic cells and 1 leukemic cell line were characterized for their expression of WT1 by intracellular FACS staining using murine anti-human WT1 monoclonal antibodies (Neomarkers, Fremont, Calif.) as previously described (32,38) The WT1+ leukemias included blast cells from 11 primary AMLs, 3 primary ALLs and 1B-cell precursor ALL cell line. Ten WT1-leukemias, were used as controls, and included 3 B-cell precursor ALLs and 7 AMLs.

WT1+ leukemia = assay: Cr51 release assay, cytotoxic CTL response vs WT1+ leukemia expressing restricting HLA allele; type: cell-based, human; settings: HLA allele A0201; 50:1 E:T
Source text: as §1
PHA blasts were not available from every patient that provided leukemia blasts for this study.

CC(C)C[C@H](NC(=O)[C@H](CO)NC(=O)[C@@H]1CCCN1C(=O)[C@@H]1CCCN1C(=O)[C@H](Cc1ccccc1)NC(=O)[C@@H](N)Cc1c[nH]cn1)C(=O)N1CCC[C@H]1C(=O)N1CCC[C@H]1C(=O)N[C@H](C(=O)O)[C@@H](C)O [SEQ ID NO: 145] (H-HFPPSLPPT-OH; N-terminus and C-terminus assumed) was tested, and the “Cytotoxic CTL response, % vs WT1+ allo APC with restricting HLA allele loaded with WT1 peptide” value (“Cytotoxic CTL response, % … with WT1 peptide” below) ([1]; HLA allele A3101) was 27%, the “Cytotoxic CTL response, % vs WT1- allo APC with restricting HLA allele” value ([2]; HLA allele A3101) was 0% and the “Cytotoxic CTL response, % vs WT1 peptide loaded autologous APC” value ([3]; HLA allele A3101) was 42%. The “Cytotoxic CTL response, % vs WT1- autologous APC” value (WT1- autologous APC; HLA allele A3101) was 0%.
In the case of CC[C@H](C)[C@H](NC(=O)[C@H](C)N)C(=O)N[C@@H](CC(C)C)C(=O)N[C@@H](CC(=O)O)C(=O)N[C@@H](Cc1ccccc1)C(=O)N[C@@H](CC(C)C)C(=O)N[C@@H](CC(C)C)C(=O)N[C@@H](CC(C)C)C(=O)N[C@@H](CCC(N)=O)C(=O)O [SEQ ID NO: 147] (H-AILDFLLLQ-OH; N-terminus and C-terminus assumed), the “Cytotoxic CTL response, % vs WT1- leukemia” value (WT1- leukemia) is reported as 3%, the “Cytotoxic CTL response, % … with WT1 peptide” value ([1]; HLA allele A0201) is reported as 17% and the “Cytotoxic CTL response, % vs WT1- allo APC with restricting HLA allele” value ([2]; HLA allele A0201) is reported as 3%. For the same molecule, the “Cytotoxic CTL response, % vs WT1 peptide loaded autologous APC” value ([3]; HLA allele A0201) was 18%, the “Cytotoxic CTL response, % vs WT1- autologous APC” value (WT1- autologous APC; HLA allele A0201) was 0% and the “Cytotoxic CTL response, % vs WT1+ leukemia” value (WT1+ leukemia) was 19%.
CC(C)C[C@H](NC(=O)[C@H](CS)NC(=O)CNC(=O)[C@@H]1CCCN1)C(=O)N[C@@H](CCC(N)=O)C(=O)N[C@@H](CCC(N)=O)C(=O)N1CCC[C@H]1C(=O)N[C@@H](CCC(=O)O)C(=O)N[C@@H](CCC(N)=O)C(=O)O [SEQ ID NO: 148] (H-PGCLQQPEQ-OH; N-terminus and C-terminus assumed) was tested, and the “Cytotoxic CTL response, % vs WT1- leukemia” value (WT1- leukemia) was 5%, the “Cytotoxic CTL response, % … with WT1 peptide” value ([1]; HLA allele A0201) was 27% and the “Cytotoxic CTL response, % … with WT1 peptide” value ([1]; HLA allele B4701) was 25%. The “Cytotoxic CTL response, % vs WT1- allo APC with restricting HLA allele” value ([2]; HLA allele A0201) was 7%, the “Cytotoxic CTL response, % vs WT1- allo APC with restricting HLA allele” value ([2]; HLA allele B4701) was 1% and the “Cytotoxic CTL response, % vs WT1 peptide loaded autologous APC” value ([3]; HLA allele A0201) was 54%. For the same molecule, the “Cytotoxic CTL response, % vs WT1 peptide loaded autologous APC” value ([3]; HLA allele B4701) was 54%, the “Cytotoxic CTL response, % vs WT1- autologous APC” value (WT1- autologous APC; HLA allele A0201) was 6% and the “Cytotoxic CTL response, % vs WT1- autologous APC” value (WT1- autologous APC; HLA allele B4701) was 6%. For the same molecule, the “Cytotoxic CTL response, % vs WT1+ leukemia” value (WT1+ leukemia) was 19%.
For CC(C)C[C@H](NC(=O)[C@H](CS)NC(=O)CNC(=O)[C@@H]1CCCN1)C(=O)N[C@@H](CCC(N)=O)C(=O)N[C@@H](CCC(N)=O)C(=O)N1CCC[C@H]1C(=O)N[C@@H](CCC(=O)O)C(=O)N[C@@H](CCC(N)=O)C(=O)N[C@@H](CCC(N)=O)C(=O)NCC(=O)O [SEQ ID NO: 149] (H-PGCLQQPEQQG-OH; N-terminus and C-terminus assumed), the “Cytotoxic CTL response, % … with WT1 peptide” value ([1]; HLA allele DRB10101) was 25%, the “Cytotoxic CTL response, % vs WT1- allo APC with restricting HLA allele” value ([2]; HLA allele DRB10101) was 1% and the “Cytotoxic CTL response, % vs WT1 peptide loaded autologous APC” value ([3]; HLA allele DRB10101) was 54%. The “Cytotoxic CTL response, % vs WT1- autologous APC” value (WT1- autologous APC; HLA allele DRB10101) was 6%.
For CC(C)C[C@H](NC(=O)[C@@H](NC(=O)[C@@H]1CCCN1C(=O)[C@H](C)NC(=O)[C@H](Cc1c[nH]c2ccccc12)NC(=O)[C@H](CCC(N)=O)NC(=O)[C@H](C)NC(=O)[C@H](C)NC(=O)CN)C(C)C)C(=O)O [SEQ ID NO: 154] (H-GAAQWAPVL-OH; N-terminus and C-terminus assumed), the “Cytotoxic CTL response, % … with WT1 peptide” value ([1]; HLA allele B3901) was 19%, the “Cytotoxic CTL response, % vs WT1- allo APC with restricting HLA allele” value ([2]; HLA allele B3901) was 0% and the “Cytotoxic CTL response, % vs WT1 peptide loaded autologous APC” value ([3]; HLA allele B3901) was 31%. The “Cytotoxic CTL response, % vs WT1- autologous APC” value (WT1- autologous APC; HLA allele B3901) was 2%.
C[C@H](N)C(=O)N[C@@H](CS)C(=O)N[C@@H](CCCNC(=N)N)C(=O)N[C@@H](Cc1ccc(O)cc1)C(=O)NCC(=O)N1CCC[C@H]1C(=O)N[C@@H](Cc1ccccc1)C(=O)NCC(=O)N1CCC[C@H]1C(=O)O [SEQ ID NO: 159] (H-ACRYGPFGP-OH; N-terminus and C-terminus assumed) was tested, and the “Cytotoxic CTL response, % … with WT1 peptide” value ([1]; HLA allele B4402) was 23%, the “Cytotoxic CTL response, % vs WT1- allo APC with restricting HLA allele” value ([2]; HLA allele B4402) was 7% and the “Cytotoxic CTL response, % vs WT1 peptide loaded autologous APC” value ([3]; HLA allele B4402) was 46%. The “Cytotoxic CTL response, % vs WT1- autologous APC” value (WT1- autologous APC; HLA allele B4402) was 8%.
With CSCC[C@H](NC(=O)[C@H](CCCNC(=N)N)NC(=O)[C@H](C)NC(=O)[C@H](CCC(N)=O)NC(=O)CNC(=O)[C@@H](N)CO)C(=O)N[C@@H](Cc1ccccc1)C(=O)N1CCC[C@H]1C(=O)N[C@@H](CC(N)=O)C(=O)O [SEQ ID NO: 160] (H-SGQARMFPN-OH; N-terminus and C-terminus assumed) the “Cytotoxic CTL response, % … with WT1 peptide” value ([1]; HLA allele B3503) was 41%, the “Cytotoxic CTL response, % … with WT1 peptide” value ([1]; HLA allele C0401) was 41% and the “Cytotoxic CTL response, % vs WT1- allo APC with restricting HLA allele” value ([2]; HLA allele B3503) was 3%. For the same molecule, the “Cytotoxic CTL response, % vs WT1- allo APC with restricting HLA allele” value ([2]; HLA allele C0401) was 3%, the “Cytotoxic CTL response, % vs WT1 peptide loaded autologous APC” value ([3]; HLA allele B3503) was 84% and the “Cytotoxic CTL response, % vs WT1 peptide loaded autologous APC” value ([3]; HLA allele C0401) was 84%. The “Cytotoxic CTL response, % vs WT1- autologous APC” value (WT1- autologous APC; HLA allele B3503) was 0% and the “Cytotoxic CTL response, % vs WT1- autologous APC” value (WT1- autologous APC; HLA allele C0401) was 0%.
